Laboratory results as given in US20130039928A1, “COMPOSITIONS AND METHODS FOR REVERSING CORTICOSTEROID RESISTANCE OR TREATING RESPIRATORY INFECTIONS” (priority 2010, published 2013).

Test system: Pseudomonas aeruginosa
Assay: Bacterial clearance by THP-1 macrophages
Assay type: cell-based
Settings: after exposure with Poly(I) (10 μg/ml)
Excerpt: The above data collectively indicate that the activation of Nrf2 improves bacterial phagocytosis and clearance by COPD macrophages. The dependence of Nrf2 on bacterial phagocytosis was investigated. […] This observations confirmed Nrf2-dependent modulation of bacterial phagocytosis and clearance. To determine the mechanisms by which Nrf2 regulates phagocytosis, microarray analysis was employed. […] To address whether sulforaphane-induced expression of MARCO correlates with bacterial clearance, differentiated human THP-1 macrophages were used. Bacterial clearance by sulforaphane treated THP-1 macrophages after exposure with polyinosinic acid (Poly(I)) was analyzed. Poly(I) is a non-selective class A scavenger receptor blocker that inhibits MARCO mediated bacterial uptake and clearance (G. M. DeLoid, T. H. Sulahian, A. Imrich, L. Kobzik, PLoS One 4, e6209 (2009)). […] Next, phagocytosis of FITC-Pseudomonas aeruginosa was examined in THP-1 macrophages with knockdown of MARCO using lentivirus-encoded shRNA (MARCO shRNA).
BMDM were isolated by culturing bone marrow cells in the presence of 10 ng/ml granulocyte-macrophage colony-stimulating factor (PeproTech) for 7 days. Murine macrophages were cultured in RPMI 1640 medium supplemented with 10% FBS and 1% penicillin-streptomycin. […]

polyinosinic acid [Poly(I)]
bacterial clearance by sulforaphane treated THP-1 macrophages: significantly impaired sulforaphane ability to improve bacterial clearance
